Results on 20 compounds are retold here after patent publication US20250197372A1 (priority 2020, published 2025).

The term IC50 denotes the concentration that gives 50% inhibition.

Common to all, as to type: biochemical
For assay [1], the target named is recombinant human GAA (acid alpha-glucosidase) (Homo sapiens, UniProt P10253). Put plainly: Acid alpha-glucosidase (GAA) assay (4-methylumbelliferyl-alpha-D-pyranoside substrate, fluorescence). In outline:
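Recombinant human enzyme preincubated 60 min at 37 °C with compound dilutions, then 4-methylumbelliferyl-alpha-D-pyranoside substrate added for 20 min at 37 °C. Stopped with glycine/NaOH pH 10; methylumbelliferone fluorescence (ex 365, em 440 nm) versus untreated enzyme; IC50 by 4-PL fit.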

For assay [2], the target named is T1, recombinant alpha-glucosidase I (human full-length glucosidase I, Glu 1) (Homo sapiens, UniProt Q13724).
T1 construct: 6-His (C); made in house; host or cells: HEK-293T cells transduced with BacMam virus (virus raised in Sf9)
T1 sequence (Q13724 1-837): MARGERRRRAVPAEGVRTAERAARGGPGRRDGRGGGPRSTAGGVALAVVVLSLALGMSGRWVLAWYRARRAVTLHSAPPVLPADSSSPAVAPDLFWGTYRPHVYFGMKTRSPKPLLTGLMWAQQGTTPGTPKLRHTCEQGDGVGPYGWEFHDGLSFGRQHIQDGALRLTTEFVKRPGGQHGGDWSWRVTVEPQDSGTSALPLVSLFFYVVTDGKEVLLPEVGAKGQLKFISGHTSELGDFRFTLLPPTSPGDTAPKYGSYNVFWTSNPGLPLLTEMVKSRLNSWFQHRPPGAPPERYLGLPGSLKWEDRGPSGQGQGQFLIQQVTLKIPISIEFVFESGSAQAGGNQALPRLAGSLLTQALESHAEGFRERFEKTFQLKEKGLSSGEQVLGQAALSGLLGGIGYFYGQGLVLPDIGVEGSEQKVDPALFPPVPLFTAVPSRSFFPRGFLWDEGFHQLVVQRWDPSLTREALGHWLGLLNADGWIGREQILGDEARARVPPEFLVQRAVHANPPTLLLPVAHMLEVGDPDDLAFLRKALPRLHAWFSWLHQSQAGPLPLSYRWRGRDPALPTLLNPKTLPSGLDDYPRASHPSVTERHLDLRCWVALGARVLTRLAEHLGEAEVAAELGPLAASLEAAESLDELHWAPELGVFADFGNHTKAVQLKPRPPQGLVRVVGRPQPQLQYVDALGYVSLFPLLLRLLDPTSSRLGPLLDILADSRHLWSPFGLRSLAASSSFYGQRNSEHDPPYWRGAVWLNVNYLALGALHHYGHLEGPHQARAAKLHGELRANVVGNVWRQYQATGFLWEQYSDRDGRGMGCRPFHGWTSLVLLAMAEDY
Put plainly: Alpha-glucosidase I assay (Amplex Red glucose detection, synthetic trisaccharide substrate). Conditions: Glucosidase 1; read-out: Glu 1 IC50. A digest of the protocol:
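Human full-length glucosidase I, His-tagged, […] and Ni-purified. Enzyme preincubated with compound dilutions 60 min at 37° C, then synthetic trisaccharide substrate 90 min at 37° C; stopped with 1.5M Tris pH 8.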

For assay [3], the target named is rat maltase (partially purified alpha-glucosidase from intestinal rat powder). Put plainly: Intestinal alpha-glucosidase assay, maltose substrate (Glucose GO Kit). In outline: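 First step: 60 min, 37 °C, compound with partially purified rat intestinal alpha-glucosidase. Next, maltose or sucrose for 30 min at 37 °C, ended at 90 °C for 5 min. Glucose quantified enzymatically; concentration–inhibition data fitted 4-PL for IC50.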

As for `[N-]=[N+]=Nc1ccc(NCCOC(=O)NCCN2C[C@H](O)[C@@H](O)[C@H](O)[C@H]2CO)c([N+](=O)[O-])c1` [Compound 1268, 2-[(4-azido-2-nitrophenyl)amino]ethyl N-{2-[(2R,3R,4R,5S)-3,4,5-trihydroxy-2-(hydroxymethyl)piperidin-1-yl]ethyl}carbamate], the figures for the IC50 in assay [1], in assay [2] and in assay [3] were 617 nM, 1990 nM and 68 nM, respectively.

Turning to `[N-]=[N+]=Nc1ccc(NCCC(O)C(O)CCN2C[C@H](O)[C@@H](O)[C@H](O)[C@H]2CO)c([N+](=O)[O-])c1` (stereo partly drawn) [Compound 1270, (2R,3R,4R,5S)-1-{6-[(4-azido-2-nitrophenyl)amino]-3,4-dihydroxy-hexyl}-2-(hydroxymethyl)piperidine-3,4,5-triol], the values for the IC50 in assay [1], in assay [2] and in assay [3] were 190 nM, 358 nM and 57 nM, respectively.

With `[N-]=[N+]=Nc1ccc(NCCN2CC(OCCN3C[C@H](O)[C@@H](O)[C@H](O)[C@H]3CO)C2)c([N+](=O)[O-])c1` [Compound 1271, (2R,3R,4R,5S)-1-{2-[(1-{2-[(4-azido-2-nitrophenyl)amino]ethyl}azetidin-3-yl)oxy]ethyl}-2-(hydroxymethyl)piperidine-3,4,5-triol], the IC50 in assay [1] came out at 1360 nM; in assay [2] it was 1070 nM; in assay [3], 33 nM.

As to `[N-]=[N+]=Nc1ccc(NCCn2cc(CCN3C[C@H](O)[C@@H](O)[C@H](O)[C@H]3CO)nn2)c([N+](=O)[O-])c1` [Compound 1272, (2R,3R,4R,5S)-1-[2-(1-{2-[(4-azido-2-nitrophenyl)amino]ethyl}-1H-1,2,3-triazol-4-yl)ethyl]-2-(hydroxymethyl)piperidine-3,4,5-triol], the IC50 in assay [1] was found to be 800 nM; in assay [2], 1800 nM; in assay [3], 239 nM.

`[N-]=[N+]=Nc1ccc(NCCN2CCN(CCN3C[C@H](O)[C@@H](O)[C@H](O)[C@H]3CO)CC2)c([N+](=O)[O-])c1` [Compound 1273, (2R,3R,4R,5S)-1-[2-(4-{2-[(4-azido-2-nitrophenyl)amino]ethyl}piperazin-1-yl)ethyl]-2-(hydroxymethyl)piperidine-3,4,5-triol]: the results for the IC50 in assay [1], in assay [2] and in assay [3] were 15600 nM, 13000 nM and 646 nM, respectively.

`[N-]=[N+]=Nc1ccc(NCCS(=O)(=O)CCCN2C[C@H](O)[C@@H](O)[C@H](O)[C@H]2CO)c([N+](=O)[O-])c1` [Compound 1274, (2R,3R,4R,5S)-1-(3-{2-[(4-azido-2-nitrophenyl)amino]ethane-sulfonyl}propyl)-2-(hydroxymethyl)piperidine-3,4,5-triol]: the values for the IC50 in assay [1], in assay [2] and in assay [3] were 136 nM, 1550 nM and 151 nM, respectively.

For the compound `[N-]=[N+]=Nc1ccc(NCCNS(=O)(=O)NCCN2C[C@H](O)[C@@H](O)[C@H](O)[C@H]2CO)c([N+](=O)[O-])c1` [Compound 1275, (2R,3R,4R,5S)-1-{2-[({2-[(4-azido-2-nitrophenyl)amino]ethyl}sulfamoyl)amino]ethyl}-2-(hydroxymethyl)piperidine-3,4,5-triol], the figures for the IC50 in assay [1], in assay [2] and in assay [3] were 556 nM, 4060 nM and 288 nM, respectively.

`[N-]=[N+]=Nc1ccc(NCCNC(=O)NCCN2C[C@H](O)[C@@H](O)[C@H](O)[C@H]2CO)c([N+](=O)[O-])c1` [Compound 1276, 1-{2-[(4-azido-2-nitrophenyl)amino]ethyl}-3-{2-[(2R,3R,4R,5S)-3,4,5-trihydroxy-2-(hydroxymethyl)piperidin-1-yl]ethyl}urea]: the IC50 turned out to be 253 nM in assay [1], 2440 nM in assay [2] and 49 nM in assay [3].

On to `Nc1ccc(NCCCCCCCCN2C[C@H](O)[C@@H](O)[C@H](O)[C@H]2CO)c([N+](=O)[O-])c1Cl` [Compound 1277, (2R,3R,4R,5S)-1-{8-[(4-amino-3-chloro-2-nitrophenyl)amino]octyl} 2-(hydroxymethyl)piperidine-3,4,5-triol], for which the IC50 in assay [1] is less than 10 nM; in assay [2], 166 nM; in assay [3] it was 52 nM.

On to `CC#Cc1ccc(NCCCCCCN2C[C@H](O)[C@@H](O)[C@H](O)[C@H]2CO)c([N+](=O)[O-])c1` [Compound 1290, (2R,3R,4R,5S)-2-(hydroxymethyl)-1-(6-{[2-nitro-4-(prop-1-yn-1-yl)phenyl]amino}hexyl)piperidine-3,4,5-triol], for which the results for the IC50 in assay [1], in assay [2] and in assay [3] were 21 nM, 36 nM and less than 10 nM, respectively.

For `[N-]=[N+]=Nc1ccc(NCCCCCCN2C[C@H](O)[C@@H](O)[C@H](O)[C@H]2CO)c(C(N)=O)c1` [Compound 1296, 5-azido-2-({6-[(2R,3R,4R,5S)-3,4,5-trihydroxy-2-(hydroxymethyl)piperidin-1-yl]hexyl}amino)benzamide], the IC50 in assay [1] is 124 nM; in assay [2] it was 142 nM; in assay [3], less than 10 nM.

As to `[N-]=[N+]=Nc1ccc(NCCCCCCN2C[C@H](O)[C@@H](O)[C@H](O)[C@H]2CO)c(C(=O)O)c1` [Compound 1297, 5-azido-2-({6-[(2R,3R,4R,5S)-3,4,5-trihydroxy-2-(hydroxymethyl)piperidin-1-yl]hexyl}amino)benzoic acid], the values for the IC50 in assay [1], in assay [2] and in assay [3] were 452 nM, 1300 nM and 169 nM, respectively.

Turning to `N#CCc1ccc(NCCCCCCN2C[C@H](O)[C@@H](O)[C@H](O)[C@H]2CO)c([N+](=O)[O-])c1` [Compound 1299, 2-[3-nitro-4-({6-[(2R,3R,4R,5S)-3,4,5-trihydroxy-2-(hydroxymethyl)piperidin-1-yl]hexyl}amino)phenyl]acetonitrile], the results for the IC50 in assay [1], in assay [2] and in assay [3] were 32 nM, 189 nM and 5 nM, respectively.

As for `N#Cc1ccc(NCCCCCCN2C[C@H](O)[C@@H](O)[C@H](O)[C@H]2CO)c([N+](=O)[O-])c1` [Compound 1304, 3-nitro-4-({6-[(2R,3R,4R,5S)-3,4,5-trihydroxy-2-(hydroxymethyl)piperidin-1-yl]hexyl}amino)benzonitrile], the IC50 in assay [1] is 43 nM; in assay [2] it was 178 nM; in assay [3], 17 nM.

As for `COc1ccc(-c2ccc(CCCN3C[C@H](O)[C@@H](O)[C@H](O)[C@H]3CO)cc2)cc1` [Compound 1305, (2R,3R,4R,5S)-2-(hydroxymethyl)-1-(3-{4′-methoxy-[1,1′-biphenyl]-4-yl}propyl)piperidine-3,4,5-triol], the IC50 in assay [1] is 498 nM; in assay [2] it was 2830 nM; in assay [3] it was less than 10 nM.

For `COc1ccc(-c2ccc(CN3C[C@H](O)[C@@H](O)[C@H](O)[C@H]3CO)cc2)cc1` [Compound 1306, (2R,3R,4R,5S)-2-(hydroxymethyl)-1-({4′-methoxy-[1,1′-biphenyl]-4-yl}methyl)piperidine-3,4,5-triol], the concentration for half-maximal inhibition (IC50) in assay [1] was 4570 nM; in assay [2], 745 nM; in assay [3], less than 10 nM.

`COCCc1ccc(CCCN2C[C@H](O)[C@@H](O)[C@H](O)[C@H]2CO)cc1` [Compound 1308, (2R,3R,4R,5S)-2-(hydroxymethyl)-1-{3-[4-(2-methoxyethyl)phenyl]propyl}piperidine-3,4,5-triol]: the concentration for half-maximal inhibition (IC50) in assay [1] was 1680 nM; in assay [2] it was more than 100000 nM; in assay [3] it was 88 nM.

As to `COc1ccc(CCCCCCCN2C[C@H](O)[C@@H](O)[C@H](O)[C@H]2CO)cc1` [Compound 1309, (2R,3R,4R,5S)-2-(hydroxymethyl)-1-[7-(4-methoxyphenyl)heptyl]piperidine-3,4,5-triol], the IC50 turned out to be 263 nM in assay [1], 700 nM in assay [2] and 22 nM in assay [3].

With `COc1ccc(CCCCCN2C[C@H](O)[C@@H](O)[C@H](O)[C@H]2CO)cc1` [Compound 1310, (2R,3R,4R,5S)-2-(hydroxymethyl)-1-[5-(4-methoxyphenyl)pentyl]piperidine-3,4,5-triol], the IC50 was 1190 nM in assay [1], 678 nM in assay [2] and less than 10 nM in assay [3].

As to `OC[C@@H]1[C@@H](O)[C@H](O)[C@@H](O)CN1CCCCCCCCC1CNCCO1` (stereo partly drawn) [Compound 1311, (2R,3R,4R,5S)-2-(hydroxymethyl)-1-[8-(morpholin-2-yl)octyl]piperidine-3,4,5-triol], the figures for the IC50 in assay [1], in assay [2] and in assay [3] were 747 nM, 1760 nM and less than 10 nM, respectively.
